≈ marks a conversion by molar mass, not a printed value. Read-outs that look alike come from different tables or passages of the source.
What was measured:
Type in all cases: cell-based
[1] = tested on: Vancomycin-susceptible Enterococcus faecalis; assay: Broth microdilution against Gram-positive clinical isolates; conditions: E. faecalis; for MIC90: Enterococcus faecalis, 31 isolates
Method: (§1) The purpose of this study was to investigate the in vitro activity of tebipenem and comparator agents, including ertapenem and meropenem, against a recent collection of Gram-positive isolates associated with clinical infections. The susceptibility of 580 Gram-positive organisms were tested, including: Methicillin-susceptible Staphylococcus aureus (MSSA, 489 isolates), Methicillin-susceptible Staphylococcus epidermidis (MSSE, 31), other methicillin-susceptible coagulase-negative staphylococci (MSCONS, 29), and Vancomycin-susceptible Enterococcus faecalis (31). Bacterial species were identified by JMI Laboratories using standard microbiology methods and matrix-assisted laser desorption ionization-time of flight mass spectrometry (Bruker Daltonics, Bremen, Germany). The isolates were collected in 2018 and 2019 as part of the SENTRY surveillance program and selected to be representative of these species with 45.0% from the United States, 44.3% from Europe, 5.3% from the Asia-Pacific region, and 5.3% from Latin America. Isolates are primarily from pneumonia in hospitalized patients (498 isolates; 85.9%), urinary tract infections (42 isolates; 7.2%), and bloodstream infections (38 isolates; 6.6%). Isolates were tested in a central laboratory (JMI Laboratories) for antimicrobial susceptibility using the CLSI M07 (2018) reference broth microdilution method. JMI Laboratories produced frozen-form 96-well panels and used cation-adjusted Mueller-Hinton broth (CA-MHB) as the testing medium. All categorical interpretations used CLSI M100 (2021) and EUCAST v10.0 (2021) breakpoint criteria, where published. Quality control organisms include Escherichia coli ATCC 25922, Escherichia coli ATCC 35218, Enterococcus faecalis ATCC 29212, Pseudomonas aeruginosa ATCC 27853, and Staphylococcus aureus ATCC 29213 were tested concurrently with clinical isolates.

[2] = tested on: E. coli; assay: Susceptibility of E. coli from urinary tract infections, 18 EU countries 2020 (STEWARD)
Method: The study assessed the prevalence of resistance and evaluated the activity of oral tebipenem (TBP) and comparators against EC from urinary tract infections.
Results were interpreted using EUCAST criteria. […] ESBL phenotypes were determined by CLSI criteria and sequenced to identify CTX-M-15 genotype and clonal complex ST131.

[3] = tested on: Enterobacterales (ENT); assay: Broth microdilution against US UTI pathogens 2019-2020; conditions: for % susceptible; CLSI: cefuroxime: oral breakpoint
Method: (§2) This study assessed the in vitro activity of tebipenem and comparator agents against Enterobacterales (ENT) responsible for UTIs in the US during 2019-2020. A total of 3,576 ENT recovered from urine samples during the 2019-2020 STEWARD Surveillance Program were included in the study. Isolates were collected from medical centers in all 9 US Census Regions and were centrally tested for susceptibility by reference broth microdilution method. MIC interpretation was performed based on CLSI criteria.

[4] = tested on: P. mirabilis; assay: as above; conditions: P. mirabilis (235); for % susceptible; CLSI: cefuroxime: oral breakpoint
Method: as §2

[5] = tested on: E. coli; assay: as above; conditions: E. coli (2,339); for % susceptible; CLSI: cefuroxime: oral breakpoint
Method: as §2

[6] = tested on: K. pneumoniae; assay: as above; conditions: K. pneumoniae (511); for % susceptible; CLSI: cefuroxime: oral breakpoint
Method: as §2

[7] = tested on: other methicillin-susceptible coagulase-negative staphylococci (MSCONS); assay: Broth microdilution against Gram-positive clinical isolates
Method: The purpose of this study was to investigate the in vitro activity of tebipenem and comparator agents, including ertapenem and meropenem, against a recent collection of Gram-positive isolates associated with clinical infections. The susceptibility of 580 Gram-positive organisms were tested, including: […] Bacterial species were identified by JMI Laboratories using standard microbiology methods and matrix-assisted laser desorption ionization-time of flight mass spectrometry (Bruker Daltonics, Bremen, Germany). […] Isolates were tested in a central laboratory (JMI Laboratories) for antimicrobial susceptibility using the CLSI […] (2018) reference broth microdilution method. JMI Laboratories produced frozen-form 96-well panels and used cation-adjusted Mueller-Hinton broth (CA-MHB) as the testing medium. […] Quality control organisms include Escherichia coli ATCC 25922, Escherichia coli ATCC 35218, Enterococcus faecalis ATCC 29212, Pseudomonas aeruginosa ATCC 27853, and Staphylococcus aureus ATCC 29213 were tested concurrently with clinical isolates.

[8] = tested on: Methicillin-susceptible Staphylococcus epidermidis (MSSE); assay: as above
Method: as §1

[9] = tested on: Methicillin-susceptible Staphylococcus aureus (MSSA); assay: as above
Method: as §1

[10] = tested on: AmpC production in P. aeruginosa; assay: AmpC induction (nitrocefin hydrolysis after drug exposure)
Method: (§3) AmpC induction was determined as follows. Baseline MIC values were determined by broth microdilution method, as described above, for 9 Gram-negative isolates with basal expression of ampC. These isolates were cultured overnight on blood agar plates. A standardized inoculum made from fresh overnight plate cultures was added to flasks containing 50 mL of Luria-Bertani (LB) broth and incubated by shaking at 37° C. to OD600 of 0.3. […] These cultures were incubated under shaking conditions. A 40 mL aliquot of bacterial cultures was sampled at time 0 and 2 hours after drug exposures. Each sample aliquot was harvested by centrifugation and the supernatant was discarded.
(§4) Protein crude extract preparations were made in 200 μL of BugBusterR (Novagen, Darmstadt, Germany) per manufacturer instructions and cell debris was removed by centrifugation. Protein concentrations were determined in each crude extract by standard methodologies.
(§5) AmpC induction was measured by the intensity of β-lactamase hydrolytic activity against 0.1 mM nitrocefin in 0.1 M phosphate buffer at pH 7.0 using spectrophotometry at 482 nm (Δ absorbance/minute/mg of protein). The drug exposure conditions that caused a >4-fold increase in hydrolysis activity compared to the baseline were subjected to postinduction experiments. Briefly, cells were grown under the same conditions as before and tested for susceptibility by broth microdilution.

[11] = tested on: AmpC production in Enterobacterales; assay: as above; conditions: tebipenem/imipenem except for C. koseri and S. marcescens
Method: as §3, §4, §5

[12] = tested on: P. aeruginosa isolates that overproduced AmpC; assay: Broth microdilution susceptibility of isolates overexpressing AmpC
Method: (§6) Frozen-form broth microdilution panels were manufactured by JMI Laboratories and contained cation-adjusted Mueller-Hinton broth. Quality assurance was performed by sterility checks, colony counts, and testing CLSI recommended quality control reference strains.

[13] = tested on: Enterobacterales overproducing AmpC; assay: as above
Method: as §6

[14] = tested on: methicillin-susceptible staphylococci, including MSSA, MSSE, and other MSCONS; assay: Broth microdilution against Gram-positive clinical isolates, summary
Method: as §1, with “JMI Laboratories produced frozen-form 96-well panels and used cation-adjusted Mueller-Hinton broth (CA-MHB) as the testing medium. All categorical interpretations used CLSI M100 (2021) and EUCAST v10.0 (2021) breakpoint criteria, where published. Quality control organisms include Escherichia coli ATCC 25922, Escherichia coli ATCC 35218, Enterococcus faecalis ATCC 29212, Pseudomonas aeruginosa ATCC 27853, and Staphylococcus aureus ATCC 29213 were tested concurrently with clinical isolates.” left out

[15] = Staphylococcus epidermidis, 31 isolates
[16] = Staphylococcus aureus, 489 isolates
[17] = P. aeruginosa overproducing AmpC

Row | Molecule | prevalence of resistant phenotype ([2]; all E. coli) | % susceptible; CLSI ([3]; All (3,567)) | % susceptible; CLSI [4] | % susceptible; CLSI [5] | % susceptible; CLSI [6] | susceptibility (% S) [7] | effect of exposure on production of AmpC [10] | effect of exposure on production of AmpC [11] | CLSI % R ([12]; P. aeruginosa (32)) | CLSI % S ([12]; P. aeruginosa (32)) | CLSI %1 ([13]; Enterobacterales (36)) | CLSI % R ([13]; Enterobacterales (36)) | CLSI % S ([13]; Enterobacterales (36)) | MIC90 [1] | MIC range ([12]; P. aeruginosa (32)) | MIC50 [13] | MIC90 [13] | MIC50 ([13]; Enterobacterales (36)) | MIC90 ([13]; Enterobacterales (36)) | MIC range ([13]; Enterobacterales (36)) | also measured
1 | C[C@H]1COc2c(N3CCN(C)CC3)c(F)cc3c(=O)c(C(=O)O)cn1c23 [Levofloxacin, levofloxacin] | 20.6% | (79.4) % | (71.8) % | (75.7) % | (87.1) % |  |  |  |  |  |  |  |  |  |  |  |  |  |  |  | Susceptibility rate [1]: 80.6%
2 | trimethoprim-sulfamethoxazole [TMP-SMX] | 30.1% | (73.9) % |  | (69.2) % | (79.8) % | 83.9% |  |  |  |  |  |  |  |  |  |  |  |  |  |  | MIC50 ([3]; All (3,567)): ≤ 120 µg/mL; MIC90 ([3]; All (3,567)): > 4000 µg/mL; MIC50 [4]: ≤ 120 µg/mL; MIC90 [4]: > 4000 µg/mL; MIC50 [5]: ≤ 120 µg/mL; MIC90 [5]: > 4000 µg/mL; MIC50 [6]: ≤ 120 µg/mL; MIC90 [6]: > 4000 µg/mL
3 | CC[C@H]1OC(=O)[C@H](C)[C@@H](O[C@H]2C[C@@](C)(OC)[C@@H](O)[C@H](C)O2)[C@H](C)[C@@H](O[C@@H]2O[C@H](C)C[C@H](N(C)C)[C@H]2O)[C@](C)(O)C[C@@H](C)C(=O)[C@H](C)[C@@H](O)[C@]1(C)O [erythromycin] |  |  |  |  |  | 54.8% |  |  |  |  |  |  |  |  |  |  |  |  |  |  | Susceptibility rate [8]: 54.8%; Susceptibility rate [9]: 65.6%
4 | CC(C)(O/N=C(\C(=O)N[C@@H]1C(=O)N2C(C(=O)[O-])=C(C[n+]3ccccc3)CS[C@H]12)c1csc(N)n1)C(=O)O [Ceftazidime] |  | (88.1%) | (98.7) % | (89.3) % | (86.1) % |  | increased the production of AmpC | did not seem to affect production of AmpC | 71.9% | 15.6% | 11.4% | 60.0% | 28.6% |  |  |  |  |  |  |  | susceptibility ([3]; against ENT, EC, and KPN): 86.1-89.3%; MIC90 ([3]; against ENT, EC, and KPN, read-out: MIC90): 8 to 16 µg/mL (≈ 14.6 to 29.3 µM); % susceptible; CLSI ([4]; listed as CAZ): 98.7%; MIC50 ([13]; Enterobacterales (36), read-out: MIC50): 32 µg/mL (≈ 58.5 µM); MIC90 ([13]; Enterobacterales (36), read-out: MIC90): > 32 µg/mL
5 | C[C@@H](O)[C@H]1C(=O)N2C(C(=O)O)=C(SC3CN(C4=NCCS4)C3)[C@H](C)[C@H]12 [Tebipenem, tebipenem] |  |  |  |  |  |  | increased the production of AmpC | increased production of AmpC |  |  |  |  |  | 1 µg/mL (≈ 2.61 µM) | 2 to 8 μ/ml | 0.03 µg/mL (≈ 0.0782 µM) | 0.25 µg/mL (≈ 0.652 µM) | 0.03 μ/ml | 0.25 μ/ml | 0.015 to 1 μ/ml | MIC90 fold lower than ertapenem [8]: 32 fold; MIC50 [8, 15]: 0.008 µg/mL (≈ 0.0209 µM); MIC90 [8, 15]: 0.015 µg/mL (≈ 0.0391 µM); MIC90 fold lower than ertapenem [9]: 8 fold; MIC50 [9, 16]: 0.015 µg/mL (≈ 0.0391 µM); MIC90 [9, 16]: 0.03 µg/mL (≈ 0.0782 µM); MIC90 fold lower than ertapenem [1]: 16 fold; MIC90 fold lower than meropenem [1]: at least 2 fold; concentration inhibiting all isolates [1]: ≤ 1 mg/L; MIC90 ([3]; against ENT, EC, and KPN): 0.015 to 0.06 µg/mL (≈ 0.0391 to 0.156 µM); MIC50 [12, 17]: 4 µg/mL (≈ 10.4 µM); MIC90 [12, 17]: 4 µg/mL (≈ 10.4 µM); concentration inhibiting all isolates ([13]; Enterobacterales overproducing AmpC): ≤ 1 µg/mL; MIC50 and MIC90 values, range over species groups [14]: 0.015 to 0.03 µg/mL; activity fold greater than ertapenem [14]: 16- to 32 fold; MIC90 fold lower than ertapenem [7]: 32 fold; MIC50 ([7]; 29 isolates): 0.015 µg/mL (≈ 0.0391 µM); MIC90 ([7]; 29 isolates): 0.03 µg/mL (≈ 0.0782 µM)
6 | C[C@@H](O)[C@H]1C(=O)N2C(C(=O)O)=C(S[C@@H]3CN[C@H](C(=O)N(C)C)C3)[C@H](C)[C@H]12 [Meropenem, meropenem] |  |  |  |  |  |  |  |  | 0.0% | 100.0% | 0.0% | 0.0% | 100.0% | > 1 µg/mL | 0.12 to 2 μ/ml | 0.03 µg/mL (≈ 0.0782 µM) | 0.12 µg/mL (≈ 0.313 µM) | 0.03 μ/ml | 0.12 μ/ml | ≤0.015 to 1 μ/ml | MIC90 ([2]; Escherichia coli, all E. coli (764) from UTIs): 0.03 µg/mL (≈ 0.0782 µM); Susceptibility rate ([2]; all E. coli, EUCAST criteria): 100%; CLSI %1 ([12]; P. aeruginosa (32)): 0.0%
